Several values for one entry are separate records, joined by “and”; a condition that tells them apart may be missing. Identical values can stand only once. Inconclusive results and toxic doses are left out.
System: CD2F1 mice, L1210 leukemia ip, survival T/C
Experiment: NCI In Vivo Anticancer Drug Screen. Data for tumor model L1210 Leukemia (intraperitoneal) in CD2F1 (CDF1) mice
Settings: higher = longer survival
How it was run: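 Implant tumor; dose compound or vehicle; measure endpoint in both groups; report treated divided by control.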

[1] = endpoint: mean survival time, dose: 25.0 mg/kg/injection, schedule: Q04DX003 (ip), vehicle: saline with Tween-80
[2] = endpoint: mean survival time, dose: 100.0 mg/kg/injection, schedule: Q04DX003 (ip), vehicle: saline with Tween-80
[3] = endpoint: mean survival time, dose: 50.0 mg/kg/injection, schedule: Q01DX009 (ip), vehicle: Klucel (hydroxypropylcellulose) (HPC)
[4] = endpoint: mean survival time, dose: 100.0 mg/kg/injection, schedule: Q01DX009 (ip), vehicle: Klucel (hydroxypropylcellulose) (HPC)
[5] = endpoint: mean survival time, dose: 100.0 mg/kg/injection, schedule: Q01DX009 (ip), vehicle: saline with Tween-80

Structure (SMILES): Clc1ccc(N=Nc2ccc(Cl)cc2)cc1
- T/C [1]: 95 % of control
- T/C (endpoint: mean survival time, dose: 50.0 mg/kg/injection, schedule: Q04DX003 (ip), vehicle: saline with Tween-80): 95 % of control
- T/C [2]: 92 % of control

Structure (SMILES): CC12C3C4C5C3C1(C)C(C42)C51OCCO1 (stereo not given)
- T/C (endpoint: mean survival time, dose: 12.5 mg/kg/injection, schedule: Q04DX002 (ip), vehicle: saline with Tween-80): 100 % of control
- T/C (endpoint: mean survival time, dose: 25.0 mg/kg/injection, schedule: Q04DX002 (ip), vehicle: saline with Tween-80): 100 % of control

Structure (SMILES): CC(=N\O)/C(C)=N/O.CC(=N\O)/C(C)=N/O.O.[CH3-].[Co]
- T/C (endpoint: mean survival time, dose: 25.0 mg/kg/injection, schedule: Q04DX003 (ip), vehicle: Klucel (hydroxypropylcellulose) (HPC)): 95 % of control
- T/C (endpoint: mean survival time, dose: 50.0 mg/kg/injection, schedule: Q04DX003 (ip), vehicle: Klucel (hydroxypropylcellulose) (HPC)): 95 % of control

Structure (SMILES): COC(=O)c1ccc(=O)c2nc3/c(=C/O)c(O)cc(=O)c3[nH]c12
- T/C (endpoint: mean survival time, dose: 5.0 mg/kg/injection, schedule: Q04DX003 (ip), vehicle: saline with Tween-80): 107 % of control
- T/C (endpoint: mean survival time, dose: 10.0 mg/kg/injection, schedule: Q04DX003 (ip), vehicle: saline with Tween-80): 90 % of control

Structure (SMILES): O=S1(=O)C=CCCC=C1
- T/C [3]: 93 % of control
- T/C [4]: 93 % of control

Structure (SMILES): CCN(CC)CC[n+]1ccc2c(C)c3[nH]c4ccc(O)cc4c3c(C)c2c1
- T/C (endpoint: mean survival time, dose: 3.12 mg/kg/injection, schedule: Q01DX009 (ip), vehicle: suspension in saline): 179 % of control
- T/C (endpoint: mean survival time, dose: 6.25 mg/kg/injection, schedule: Q01DX009 (ip), vehicle: suspension in saline): 228 % of control
- T/C (endpoint: mean survival time, dose: 12.5 mg/kg/injection, schedule: Q01DX009 (ip), vehicle: suspension in saline): 170 % of control and 262 % of control
- T/C (endpoint: mean survival time, dose: 25.0 mg/kg/injection, schedule: Q01DX009 (ip), vehicle: suspension in saline): 116 % of control and 111 % of control
- T/C (endpoint: mean survival time, dose: 50.0 mg/kg/injection, schedule: Q01DX009 (ip), vehicle: saline): 102 % of control
- T/C (endpoint: mean survival time, dose: 50.0 mg/kg/injection, schedule: Q01DX009 (ip), vehicle: suspension in saline): 92 % of control

Structure (SMILES): COC1(OC)CCC(OC)(OC)C(OC)(OC)C1(OC)OC
- T/C [2]: 96 % of control
- T/C (endpoint: mean survival time, dose: 200.0 mg/kg/injection, schedule: Q04DX003 (ip), vehicle: saline with Tween-80): 94 % of control
- T/C (endpoint: mean survival time, dose: 400.0 mg/kg/injection, schedule: Q04DX003 (ip), vehicle: saline with Tween-80): 102 % of control

Structure (SMILES): CCc1ccc2ccccc2c1[N+](=O)[O-]
- T/C (endpoint: mean survival time, dose: 100.0 mg/kg/injection, schedule: Q01DX001 (ip), vehicle: saline with Tween-80): 105 % of control
- T/C (endpoint: mean survival time, dose: 200.0 mg/kg/injection, schedule: Q01DX001 (ip), vehicle: saline with Tween-80): 94 % of control
- T/C (endpoint: mean survival time, dose: 400.0 mg/kg/injection, schedule: Q01DX001 (ip), vehicle: saline with Tween-80): 98 % of control

Structure (SMILES): CC1=CC2c3cccc4[nH]cc(c34)CC2N(C)C1 (stereo not given)
- T/C (endpoint: median survival time, dose: 1.25 mg/kg/injection, schedule: Q01DX009 (ip), vehicle: suspension in saline): 101 % of control
- T/C (endpoint: median survival time, dose: 2.5 mg/kg/injection, schedule: Q01DX009 (ip), vehicle: suspension in saline): 101 % of control
- T/C (endpoint: median survival time, dose: 5.0 mg/kg/injection, schedule: Q01DX009 (ip), vehicle: suspension in saline): 101 % of control
- T/C (endpoint: median survival time, dose: 10.0 mg/kg/injection, schedule: Q01DX009 (ip), vehicle: suspension in saline): 101 % of control
- T/C (endpoint: median survival time, dose: 20.0 mg/kg/injection, schedule: Q01DX009 (ip), vehicle: suspension in saline): 98 % of control

Structure (SMILES): NC(=O)c1[nH]cnc1/N=N/N(CCCl)Cc1ccccc1
- T/C (endpoint: mean survival time, dose: 66.0 mg/kg/injection, schedule: Q01DX009 (ip), vehicle: Klucel (hydroxypropylcellulose) (HPC)): 180 % of control
- T/C [4]: 264 % of control
- T/C (endpoint: mean survival time, dose: 150.0 mg/kg/injection, schedule: Q01DX009 (ip), vehicle: Klucel (hydroxypropylcellulose) (HPC)): 264 % of control
- T/C (endpoint: mean survival time, dose: 200.0 mg/kg/injection, schedule: Q04DX003 (ip), vehicle: Klucel (hydroxypropylcellulose) (HPC)): 227 % of control
- T/C (endpoint: mean survival time, dose: 400.0 mg/kg/injection, schedule: Q04DX003 (ip), vehicle: Klucel (hydroxypropylcellulose) (HPC)): 268 % of control

Structure (SMILES): c1ccc(CN2CCNCC2)cc1
- T/C (endpoint: mean survival time, dose: 6.25 mg/kg/injection, schedule: Q04DX003 (ip), vehicle: saline with Tween-80): 96 % of control
- T/C (endpoint: mean survival time, dose: 12.5 mg/kg/injection, schedule: Q04DX003 (ip), vehicle: saline with Tween-80): 96 % of control
- T/C [1]: 101 % of control

Structure (SMILES): c1cc2nc(c1)CSCCCCCCCCSC2
- T/C [5]: 88 % of control
- T/C (endpoint: mean survival time, dose: 200.0 mg/kg/injection, schedule: Q01DX009 (ip), vehicle: saline with Tween-80): 91 % of control
- T/C (endpoint: mean survival time, dose: 400.0 mg/kg/injection, schedule: Q01DX009 (ip), vehicle: saline with Tween-80): 95 % of control

Structure (SMILES): O=C(O)CSCc1ccc(Cl)cc1Cl
- T/C [3]: 98 % of control
- T/C [4]: 87 % of control
- T/C (endpoint: mean survival time, dose: 200.0 mg/kg/injection, schedule: Q01DX009 (ip), vehicle: Klucel (hydroxypropylcellulose) (HPC)): 93 % of control

Structure (SMILES): C#CCCCN1CCC2(CC1)C(=O)N(C(=O)N(C)C)CN2c1ccccc1
- T/C (endpoint: mean survival time, dose: 25.0 mg/kg/injection, schedule: Q01DX009 (ip), vehicle: saline with Tween-80): 100 % of control
- T/C (endpoint: mean survival time, dose: 50.0 mg/kg/injection, schedule: Q01DX009 (ip), vehicle: saline with Tween-80): 96 % of control
- T/C [5]: 97 % of control

Source: PubChem BioAssay AID256 (DTP/NCI, 2004)
